In brackets after ≈: the same amount, converted by molar mass. Read-outs that look alike come from different tables or passages of the source.
Columns and labels:
[1] = test system: human rhinovirus 8 (HRV8); assay: Cytopathic effect (cpE)-inhibition test in HeLa cells, HRV8; assay type: cell-based; settings: for IC50: Rhinovirus A, read-out: 50% inhibition concentration HRV8
Description: (§1) Cytopathic effect (cpE)-inhibition test with the international reference strain coxsackievirus B3 Nancy (CVB3 Nancy), human rhinovirus 2 and 8 (HRV2 and […]) in HeLa cells
(§2) The replication of the viruses used in the test leads to the complete destruction of the host cells, a strong cytophatic effect (cpE). […] In the test, untreated and substance-treated compact cell lawns were infected with a virus dose that leads to a complete cpE in the untreated virus controls 24 h (CVB3 Nancy) or 72 h (HRV2 and HRV8) after the infection. At this point in time, the still adherent cells were fixed and dyed with a crystal-violet/formalin solution. The inhibition of the virus-induced cpE was quantified photometrically in a Dynatach plate reader after dye elution. The antiviral effect was calculated by comparing the optical densities of the substance-treated and untreated, virus-infected cells with the mean optical density of the cell controls that was assumed to be 100%. By means of the mean dose effect curves the 50% inhibition concentration was determined. Pleconaril was used as a control substance.

[2] = test system: human rhinovirus 2 (HRV2); assay: Cytopathic effect (cpE)-inhibition test in HeLa cells, HRV2; assay type: cell-based; settings: for IC50: Rhinovirus A, read-out: 50% inhibition concentration HRV2
Description: as §1, §2

[3] = test system: coxsackievirus B3 Nancy (CVB3 Nancy); assay: Cytopathic effect (cpE)-inhibition test in HeLa cells, CVB3 Nancy; assay type: cell-based; settings: 24 h after infection; for IC50: Enterovirus B, read-out: 50% inhibition concentration CVB3 Nancy
Description: as §1, §2

mice = assay: Acute toxicity in the mouse, single oral administration; assay type: in vivo; settings: for Number of dead/surviving mice: 5 mice; for substance concentration up to which all animals survived: administered orally once, mice; for tolerability after administering orally once: mouse, in vivo, po; for influence on general state of health, rectal temperature, body weight: up to 3.000 mg/kg orally once, three days observation
Description: The acute toxicity of the substances of the examples 2 and 4 were determined in mice which were 4-5 weeks old (without strain designation). 1-2 drops TWIN-80 were added to a 1% aqueous carboxymethyl cellulose solution and this mixture was used to produce a substance suspension. 1500, 2000, 2500, 3000, 4000 or 5000 mg/kg of the substances of the examples 2 and 4 were administered orally to 5 mice, each amount once. On the following three days, the general state of health of the mice, the changes in their weight, their rectal temperatures and their survival rate were determined.

HeLa cells = assay: Tolerance in the cell culture: cytotoxicity in HeLa cells (CC50); assay type: cell-based; settings: 72 h incubation
Description: (§3) 1×10^4 HeLa cells (DSMZ, ACC 57) were seeded per microtestplate cavity in 0.2 ml culture medium RPMI 1640. The microtiter plates were incubated without the test substance according to standard (at 37° C., 5% CO2 and ca. 95% relative humidity) for 48 hours under physiological conditions to produce subconfluent monolayers. Afterwards, dilution stages of the test substances were added to the monolayers and incubated under physiological conditions during a period of 72 h. At the end of the time of incubation, the extinction of all cavities of the microtiterplates were measured at 660 nm by means of a microplate reader (Sunrise, TECAN) after glutaraldehyd fixation and methylen-blue dye and the CC50 was determined by the analysis program “Magellan”. As the pre-incubation of the HeLa cells already leads to the formation of a subconfluent cell lawn, the cytolysis during the subsequent incubation with the test substance is decisive for the analysis. GMK cells were seemed in microtiter plates and preincubated at 5% CO2, 37° C. and with a humidity of 95% in the incubator during 48 h for producing a cell lawn (Schmidtke M et al.: J Virol Meth, 2001, 95(1-2), 133-143). Then, the medium was removed and the substances were deposited in different concentrations (100 μl/well/concentration, dilution factor 2) in the culture medium. 100 μl of the medium was used for each of the control value determinations (six untreated cell controls). 72 h after the substance application and incubation, the cells were dyed with crystal-violet/methanol. After the extraction of the dye, the optical density (OD) of the individual cavities were measured in a plate photometer of the Dynatech company (550/630 nm) and compared with the mean value of the cell controls. The mean value of the controls was assumed to be 100 %. By means of the mean dose effect curves the 50% cytotoxic concentrations (CC50) were measured by applying the linear interpolation method.

GMK cells = assay: Tolerance in the cell culture: cytotoxicity in GMK cells (CC50); assay type: cell-based; settings: 72 h incubation
Description: as §3

coxsackievirus B6 (CVB6) = assay: Plaque reduction test (PRT) in HeLa cells, CVB6; assay type: cell-based
Description: (§4) Plaque reduction test (PRT) with the substance of example 1 and coxsackievirus B1, B2, B4, B5, B6 (CVB1, CVB2, CVB4, CVB5, CVB6)
(§5) For performing the test, 2-3-days-old compact HeLa cell lawns were infected in 12-well-tissue culture plates with 50-80 plaque-forming units (PFU) (Schmidtke M et al.: J Virol Meth, 2001, 95(1-2), 133-143). Two non-infected cavities of the plate were used as cell controls (CC). After a virus adsorption at 37° C. during one hour the virus-containing supernatant was soaked off. The infected cells were covered with a test medium containing 0.4% agar without (virus controls) or with substance in non-zytotoxic concentrations (dilution factor 2, double determination per concentration) and incubated at 37° C. during 48 h. After the fixation and dyeing of the plates with crystal-violet formalin, the agar was removed and rinsed in flowing water. The number of the virus-induced plaques was counted via a light box and afterwards the proportional substance-induced plaque reduction was calculated. Three identical test approaches were performed and the concentration that leads to a 50% plaque reduction (IC50) was measured by using the calculated mean dose-effect-curve.

coxsackievirus B5 (CVB5) = assay: Plaque reduction test (PRT) in HeLa cells, CVB5; assay type: cell-based
Description: as §4, §5

coxsackievirus B2 (CVB2) = assay: Plaque reduction test (PRT) in HeLa cells, CVB2; assay type: cell-based
Description: as §4, §5

[4] = Tolerance in the cell culture: cytotoxicity in HeLa cells (CC50); assay type: cell-based; settings: human, repeated per virus line of the plaque reduction table, read-out: 50% zytotoxic concentration in HeLa cells (CC50)
Description: as §3

coxsackievirus B1 (CVB1) = assay: Plaque reduction test (PRT) in HeLa cells, CVB1; assay type: cell-based
Description: as §4, §5

coxsackievirus B4 (CVB4) = assay: Plaque reduction test (PRT) in HeLa cells, CVB4; assay type: cell-based
Description: as §4, §5

[5] = HRV8, cpE inhibition, HeLa cells, 72 h after infection
[6] = HRV2, cpE inhibition, HeLa cells, 72 h after infection
[7] = cpE inhibition, HeLa cells, 72 h after infection

## Cc1cc(CCCOc2c(C)cc(-c3noc(C(F)(F)F)n3)cc2C)on1 [Pleconaril, reference compound]
[1]; HRV8, HeLa, 72 h
  IC50: 1.3 µg/mL (≈ 3.41 µM)
[2]; HRV2, HeLa, 72 h
  IC50: 0.01 µg/mL (≈ 0.0262 µM)
[3]
  50% inhibition concentration CVB3 Nancy: ineffective

## Cc1ccc(Nc2n[nH]c3nc(-c4ccccc4)nc(N)c23)cc1 [Example 4, 4-amino-3-(4-methylphenyl)amino-6-phenylpyrazolo[3,4-d]pyrimidine]
[1]; [5]
  IC50: 2.2 µg/mL (≈ 6.95 µM)
[2]; [6]
  IC50: 1.8 µg/mL (≈ 5.69 µM)
[3]
  IC50: 0.08 µg/mL (≈ 0.253 µM)
mice; 1500 mg/kg orally once
  Number of dead/surviving mice: 0/5
mice; 2000 mg/kg orally once
  Number of dead/surviving mice: 0/5
mice; 2500 mg/kg orally once
  Number of dead/surviving mice: 0/5
mice; 3000 mg/kg orally once
  Number of dead/surviving mice: 0/5
mice; 4000 mg/kg orally once
  Number of dead/surviving mice: 4/5
mice; 5000 mg/kg orally once
  Number of dead/surviving mice: 5/5
mice
  substance concentration up to which all animals survived: 3.000 mg/kg
  tolerability after administering orally once: very tolerable
  influence on general state of health, rectal temperature, body weight: Neither the general state of health nor the rectal temperature nor the body weight was influenced
HeLa cells
  50% cytotoxic concentration in HeLa cells: >50 µg/mL
GMK cells
  50% cytotoxic concentration in GMK cells: >50 µg/mL

## Cc1cccc(Nc2n[nH]c3nc(-c4ccccc4)nc(N)c23)c1 [Example 3, 4-amino-3-(3-methylphenyl)amino-6-phenylpyrazolo[3,4-d]pyrimidine]
other
  melting point: 246 to 248 °C
[1]; [5]
  IC50: 1 µg/mL (≈ 3.16 µM)
[2]; [6]
  IC50: 1.1 µg/mL (≈ 3.48 µM)
[3]
  IC50: 0.02 µg/mL (≈ 0.0632 µM)
HeLa cells
  50% cytotoxic concentration in HeLa cells: 27.7 µg/mL

## Nc1nc(-c2ccccc2)nc2[nH]nc(Nc3ccc(F)cc3)c12 [Example 6, 4-amino-3-(4-fluorophenyl)amino-6-phenylpyrazolo[3,4-d]pyrimidine]
other
  melting point: 259 to 263 °C
[1]; [5]
  IC50: 2 µg/mL (≈ 6.24 µM)
[2]; [6]
  IC50: 0.9 µg/mL (≈ 2.81 µM)
[3]
  IC50: 0.03 µg/mL (≈ 0.0937 µM)
HeLa cells
  50% cytotoxic concentration in HeLa cells: 44.3 µg/mL
GMK cells
  50% cytotoxic concentration in GMK cells: >50 µg/mL

## Nc1nc(-c2ccccc2)nc2[nH]nc(Nc3ccccc3)c12 [Example 1, 4-amino-3-phenylamino-6-phenylpyrazolo[3,4-d]pyrimidine]
Coxsackievirus B6 (CVB6); CVB6
  Selection index (SI) = CC50:IC50: 15.3
Coxsackievirus B6 (CVB6); Enterovirus B, HeLa, plaque reduction, CVB6, 48 h, read-out: 50% inhibition concentration in HeLa cells (IC50)
  IC50: 2.6 µg/mL (≈ 8.6 µM)
[1]; [7]
  50% inhibition concentration HRV8: ineffective
[2]; [7]
  50% inhibition concentration HRV2: ineffective
Coxsackievirus B5 (CVB5); CVB5
  Selection index (SI) = CC50:IC50: 14.1
Coxsackievirus B5 (CVB5); Enterovirus B, HeLa, plaque reduction, CVB5, 48 h, read-out: 50% inhibition concentration in HeLa cells (IC50)
  IC50: 2.8 µg/mL (≈ 9.26 µM)
[3]
  IC50: 0.002 µg/mL (≈ 0.00662 µM)
Coxsackievirus B2 (CVB2); CVB2
  Selection index (SI) = CC50:IC50: 132
Coxsackievirus B2 (CVB2); Enterovirus B, HeLa, plaque reduction, CVB2, 48 h, read-out: 50% inhibition concentration in HeLa cells (IC50)
  IC50: 0.3 µg/mL (≈ 0.992 µM)
[4]
  CC50 at 72 h: 39.6 µg/mL (≈ 131 µM)
HeLa cells
  50% cytotoxic concentration in HeLa cells: 39.6 µg/mL
GMK cells
  50% cytotoxic concentration in GMK cells: >50 µg/mL
Coxsackievirus B1 (CVB1); CVB1
  Selection index (SI) = CC50:IC50: 3.1
Coxsackievirus B1 (CVB1); Enterovirus B, HeLa, plaque reduction, CVB1, 48 h, read-out: 50% inhibition concentration in HeLa cells (IC50)
  IC50: 12.7 µg/mL (≈ 42 µM)
Coxsackievirus B4 (CVB4); CVB4
  Selection index (SI) = CC50:IC50: 5.6
Coxsackievirus B4 (CVB4); Enterovirus B, HeLa, plaque reduction, CVB4, 48 h, read-out: 50% inhibition concentration in HeLa cells (IC50)
  IC50: 7.1 µg/mL (≈ 23.5 µM)

## Nc1nc(-c2ccccc2)nc2[nH]nc(Nc3ccc(Br)cc3)c12 [Example 5, 4-amino-3-(4-bromophenyl)amino-6-phenylpyrazolo[3,4-d]pyrimidine]
other
  melting point: 272 to 274 °C
[1]; [5]
  IC50: 1 µg/mL (≈ 2.62 µM)
[2]; [6]
  IC50: 0.7 µg/mL (≈ 1.84 µM)
[3]
  IC50: 0.04 µg/mL (≈ 0.105 µM)
HeLa cells
  50% cytotoxic concentration in HeLa cells: 8.5 µg/mL
GMK cells
  50% cytotoxic concentration in GMK cells: 42.9 µg/mL

## Nc1nc(-c2ccccc2)nc2[nH]nc(Nc3cccc(F)c3)c12 [Example 2, 4-amino-3-(3-fluorophenyl)amino-6-phenylpyrazolo[3,4-d]pyrimidine]
[1]; [5]
  IC50: 4.6 µg/mL (≈ 14.4 µM)
[2]; [6]
  IC50: 4.1 µg/mL (≈ 12.8 µM)
[3]
  IC50: 0.001 µg/mL (≈ 0.00312 µM)
mice; 1500 mg/kg orally once
  Number of dead/surviving mice: 0/5
mice; 2000 mg/kg orally once
  Number of dead/surviving mice: 0/5
mice; 2500 mg/kg orally once
  Number of dead/surviving mice: 0/5
mice; 3000 mg/kg orally once
  Number of dead/surviving mice: 0/5
mice; 4000 mg/kg orally once
  Number of dead/surviving mice: 3/5
mice; 5000 mg/kg orally once
  Number of dead/surviving mice: 5/5
mice
  substance concentration up to which all animals survived: 3.000 mg/kg
  tolerability after administering orally once: very tolerable
  influence on general state of health, rectal temperature, body weight: Neither the general state of health nor the rectal temperature nor the body weight was influenced
HeLa cells
  50% cytotoxic concentration in HeLa cells: 45.7 µg/mL
GMK cells
  50% cytotoxic concentration in GMK cells: >50 µg/mL
